The numbers were not newly measured in patent publication US20100248978A1, “METHOD FOR IDENTIFYING THE INTERACTION PARTNER OF AN ACTIVE AGENT” (Bayer Cropscience AG, priority 2007, published 2010), which cites them from elsewhere.

In this series the target is T1, p-hydroxyphenylpyruvate dioxygenase (HPPD) (Arabidopsis thaliana, UniProt P93836).
T1 sequence (P93836 1-445): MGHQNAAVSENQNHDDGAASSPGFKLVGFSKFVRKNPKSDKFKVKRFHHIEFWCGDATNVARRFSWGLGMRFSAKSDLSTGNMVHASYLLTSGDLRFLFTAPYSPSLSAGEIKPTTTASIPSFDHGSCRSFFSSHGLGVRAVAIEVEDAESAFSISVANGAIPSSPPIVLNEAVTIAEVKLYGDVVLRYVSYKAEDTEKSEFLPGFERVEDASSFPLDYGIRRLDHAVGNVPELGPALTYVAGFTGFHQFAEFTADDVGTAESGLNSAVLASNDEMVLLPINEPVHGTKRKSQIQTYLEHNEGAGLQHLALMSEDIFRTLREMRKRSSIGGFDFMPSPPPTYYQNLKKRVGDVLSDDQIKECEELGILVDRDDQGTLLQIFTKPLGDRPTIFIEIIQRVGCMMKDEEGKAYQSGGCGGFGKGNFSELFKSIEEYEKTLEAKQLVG

For the compound `CS(=O)(=O)c1ccc(C(=O)C2C(=O)CCCC2=O)c(Cl)c1` [sulcotrione], the “inhibition of HPPD” value was “inhibits”.
